According to EP0194905A1, “5',5'''-P1,P4-diadenosine-tetraphosphate alpha-,beta-phosphorylase and its use in the preparation of isotope-labelled nucleotides” (priority 1985, dated 1986):

Columns and labels:
Ap4A-phosphorylase [1] = target: T1, Ap4A-phosphorylase (Saccharomyces cerevisiae, UniProt P16550); experiment: Ap4A-phosphorylase activity: initial rates of phosphorolysis of Ap4A and related substrates (PEI-cellulose TLC, radioactivity); assay type: biochemical; details: for substrat de l'Ap4A-phosphorylase (behaviour as substrate): compounds structurally related to Ap4A, in presence of phosphate; for vitesses de phosphorolyse, % du taux observé pour l'Ap4A: standard incubation medium, 500 uM substrate
T1 construct: l'Ap4A phosphorylase est constituée d'une seule chaîne; endogenous in cells; host or cells: Saccharomyces cerevisiae yeast cells; enzyme purified by ammonium sulfate, DEAE-Sephacel, Sephadex G-100, hydroxyapatite and Sephadex G-75 superfine
T1 sequence (P16550 1-321): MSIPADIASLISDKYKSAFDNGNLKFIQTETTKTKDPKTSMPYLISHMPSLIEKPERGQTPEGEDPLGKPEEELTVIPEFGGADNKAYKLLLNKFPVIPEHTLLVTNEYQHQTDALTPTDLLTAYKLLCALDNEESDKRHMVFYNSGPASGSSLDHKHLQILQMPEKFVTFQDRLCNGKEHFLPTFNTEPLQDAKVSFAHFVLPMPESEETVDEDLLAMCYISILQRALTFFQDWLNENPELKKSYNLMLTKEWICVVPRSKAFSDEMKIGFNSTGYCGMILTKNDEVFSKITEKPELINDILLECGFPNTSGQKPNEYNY
Description: L'activité de l'Ap4A-phosphorylase a été déterminée à 37°C. Le mélange d'incubation standard contenait, dans un volume final de 25 ou 50 µl, du tampon 50 mM acide 4-(2-hydroxyéthyl)-1-pipérazine éthane sulfonique (Hepes)/KOH (pH 8,2), 1 mM 2-mercaptoéthanol, 2 % de glycérol, 500 µM MnCl2, […], 500 uM de [^3H]Ap4A (1 pmol = 20 cpm), de la sérum-albumine bovine (0,4 mg/ml) et une solution d'enzyme diluée de façon appropriée en présence de 2 mg/ml de sérum-albumine bovine. Dans certains cas, l'activité a été suivie à l'aide de [^32P]K2HPO4.
Pour mesurer les vitesses initiales, de phosphorolyse, on a déposé des prélèvements de 2 µl sur des couches minces de polyéthylèneimine-cellulose contenant un indicateur fluorescent (foumies par MERCK) après 2, 4, 8 et 16 min de réaction.
Des standards d'Ap4A et d'ADP ont été ajoutés et les chromatogrammes ont été développés tout d'abord pendant 15 min dans le méthanol à 75 %, puis pendant 1 h dans du chlorure de lithium 0,85 M. Les valeurs Rf des composés standards étaient respectivement de 0,15 (Ap4A) et 0,25 (ADP), la valeur Rf du phosphate était de 0,55. Les taches d'ADP visualisées sous lumière ultraviolette ont été découpées et immergées dans 5 ml de mélange de scintillation et la radioactivité a été mesurée. Au cours des différentes étapes de purification, l'enzyme a été testée en l'absence de radioactivité; les fractions actives ont été afors directement identifiées sur les chromatogrammes sous lumière ultraviolette.
La dégradation enzymatique de l'Ap4A par l'enzyme selon l'invention, c'est-à-dire l'Ap4A-phosphorylase, a été caractérisée par identification des produits de ladite réaction de dégradation par co-migration avec des composés standards authentiques sur des couches minces de polyéthylèneimine-cellulose. Cette identification a été confirmée sur une colonne de Lichrosorb RP-18 (MERCK) en utilisant un système HPLC (chromatographie liquide haute performance) avec une élution isocratique par du phosphate de potassium 25 mM, pH 5,3 selon la méthode de BREVET et al. décrite dans J.Biol.Chem. (1982), 257. 14613-14615. La colonne de chromatographie a été utilisée avec une pompe modèle 112, un injecteur modèle 210 et un détecteur d'absorbance modèle 160 (matériel BECKMAN), en opérant à 254 nm avec une sensibilité de 0,002 unité d'absorbance pleine échelle.

AMP-désaminase = target: T2, AMP-désaminase (Rattus norvegicus, UniProt P10759); details: enzyme from rat muscle; cited from earlier work
T2 construct: host or cells: rat muscle
T2 sequence (P10759 1-747): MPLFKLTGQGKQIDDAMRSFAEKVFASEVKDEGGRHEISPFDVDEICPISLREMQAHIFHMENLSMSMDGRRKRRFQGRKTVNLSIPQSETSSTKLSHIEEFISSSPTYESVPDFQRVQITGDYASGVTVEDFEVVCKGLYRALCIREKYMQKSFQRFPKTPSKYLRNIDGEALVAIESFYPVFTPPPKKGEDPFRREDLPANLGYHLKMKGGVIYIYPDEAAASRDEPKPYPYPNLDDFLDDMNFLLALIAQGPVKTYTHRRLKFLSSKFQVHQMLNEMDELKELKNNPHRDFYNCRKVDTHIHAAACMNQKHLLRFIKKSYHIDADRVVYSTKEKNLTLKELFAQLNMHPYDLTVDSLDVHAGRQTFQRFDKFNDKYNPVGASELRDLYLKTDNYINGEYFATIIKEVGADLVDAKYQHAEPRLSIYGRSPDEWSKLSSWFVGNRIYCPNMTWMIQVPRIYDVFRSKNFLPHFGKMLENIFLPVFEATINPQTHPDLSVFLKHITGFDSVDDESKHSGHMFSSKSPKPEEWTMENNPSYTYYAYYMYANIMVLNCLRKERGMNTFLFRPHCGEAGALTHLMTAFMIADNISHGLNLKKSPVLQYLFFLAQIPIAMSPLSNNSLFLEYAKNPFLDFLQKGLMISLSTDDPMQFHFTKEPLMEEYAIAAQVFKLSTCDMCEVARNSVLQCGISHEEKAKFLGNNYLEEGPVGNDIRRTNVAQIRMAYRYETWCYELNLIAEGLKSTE

Ap4A-phosphorylase [2] = target: T1, Ap4A-phosphorylase; experiment: NDP-P* exchange reaction catalysed by Ap4A-phosphorylase; assay type: biochemical; details: AMPS versus ADP
Source text: On a estimé les constantes de Michaelis Km et les vitesses d'échange pour différents NDP au pH optimum, lequel varie en fonction des substrats. Les résultats obtenus sont rassemblés dans le tableau Il ci-après ainsi que les conditions expérimentales.

GMP-réductase [3] = details: enzyme from Artemia; cited from earlier work
GMP-réductase [4] = target: T3, GMP-réductase (Homo sapiens, UniProt P36959); details: enzyme from human erythrocytes; cited from earlier work
T3 construct: host or cells: human erythrocytes
T3 sequence (P36959 1-345): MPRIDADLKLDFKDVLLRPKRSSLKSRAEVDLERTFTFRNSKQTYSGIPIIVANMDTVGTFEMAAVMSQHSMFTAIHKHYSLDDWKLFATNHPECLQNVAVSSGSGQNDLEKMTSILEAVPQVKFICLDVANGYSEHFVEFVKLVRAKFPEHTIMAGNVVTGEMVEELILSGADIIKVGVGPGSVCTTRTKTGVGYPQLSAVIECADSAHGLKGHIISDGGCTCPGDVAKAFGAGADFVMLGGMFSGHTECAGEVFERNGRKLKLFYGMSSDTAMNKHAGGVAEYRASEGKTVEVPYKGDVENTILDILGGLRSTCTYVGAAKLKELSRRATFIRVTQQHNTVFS

| Structure (SMILES) | substrat de l'Ap4A-phosphorylase (behaviour as substrate) (Ap4A-phosphorylase [1]) | vitesses de phosphorolyse, % du taux observé pour l'Ap4A (Ap4A-phosphorylase [1]) [%] | also measured |
| --- | --- | --- | --- |
| Nc1ncnc2c1ncn2[C@@H]1O[C@H](COP(=O)(O)OP(=O)(O)OP(=O)(O)OP(=O)(O)OC[C@H]2O[C@@H](n3cnc4c(N)ncnc43)[C@H](O)[C@@H]2O)[C@@H](O)[C@H]1O (single isomer, unassigned; diad) [Ap4A, 5',5"'-P^1,P^4-diadénosine-tétraphosphate] | substrat préféré | – | vitesse de la réaction de phosphorolyse (Ap4A-phosphorylase [1]; Ap4A saturant): 36 s⁻¹; effect on activité de l'AMP-désaminase (AMP-désaminase): double l'activité |
| Nc1ncnc2c1ncn2[C@@H]1O[C@H](COP(=O)(O)OP(=O)(O)OP(=O)(O)OP(=O)(O)OP(=O)(O)OC[C@H]2O[C@@H](n3cnc4c(N)ncnc43)[C@H](O)[C@@H]2O)[C@@H](O)[C@H]1O (single isomer, unassigned; diad) [Ap5A, Diadénosine pentaphosphate] | substrats | 50 | – |
| Nc1ncnc2c1ncn2[C@@H]1O[C@H](COP(=O)(O)OP(=O)(O)OP(=O)(O)OC[C@H]2O[C@@H](n3cnc4c(N)ncnc43)[C@H](O)[C@@H]2O)[C@@H](O)[C@H]1O (single isomer, unassigned; diad) [Ap,A, Diadénosine triphosphate] | ne soient pas des substrats | – | – |
| Nc1ncnc2c1ncn2[C@@H]1O[C@H](COP(=O)(O)OS(=O)(=O)O)[C@@H](O)[C@H]1O [AMPS, adénosine 5'-phosphosulfate] | – | – | rapport V/km, fold higher than for ADP (Ap4A-phosphorylase [2]): ~5 fois |
| Nc1nc2c(ncn2[C@@H]2O[C@H](COP(=O)(O)OP(=O)(O)OP(=O)(O)OP(=O)(O)OC[C@H]3O[C@@H](n4cnc5c(=O)[nH]c(N)nc54)[C@H](O)[C@@H]3O)[C@@H](O)[C@H]2O)c(=O)[nH]1 [Gp4G, Diguanosine tétraphosphate] | substrats | 40 | effect on GMP-réductase (GMP-réductase [3]): effet positif spécifique; effect on GMP-réductase (GMP-réductase [4]): effet positif spécifique |
